The results in this text go back to patent US10538554B2, “Peptides and uses therefor as antiviral agents” (priority 2015, dated 2020).

Usually % Inhibition stands for the relative decrease from the control value, in per cent.

Assay [1] relates to H1N1 A1/Malaysia/302/1954. The note with it: A1/Malaysia/302/1954, 48 h, 500 μM.
For assay [2], the system named is H3N8 A/Miami/2/63. The conditions noted are these: A/Miami/2/63, 48 h, 500 μM.
Assay [3] concerns H9N2 A/Iran/16/2000. The note with it: 48 h, 500 μM.
Assay [4] deals with H1N1 A/PR/8/1934. The conditions noted are these: A/PR/8/1934, 48 h, 1 μM.

Bridge positions count the residues as written; N and C are the ends. Square brackets hold non-standard residues; d marks the D form. Peptide text beside a SMILES is read from it.

In the case of `CC[C@@H](C)[C@H]1NC(=O)[C@@H](Cc2ccccc2)NC(=O)[C@@H](CCCNC(=N)N)NC(=O)[C@@H](CO)NC(=O)[C@@H](CCSC)NC(=O)[C@@H]([C@H](C)O)NC(=O)[C@H](NC(=O)[C@@H](CCCCN)NC(=O)[C@@H](CCCCN)NC(=O)[C@@H](CCCNC(=N)N)NC(=O)[C@H](N)CCCNC(=N)N)CSSC[C@H](C(=O)O)NC(=O)[C@@H](CC(N)=O)NC1=O` [PSP II A11, H-rrkkctmsrfinc-OH] (H-[dR][dR][dK][dK][dC][dT][dM][dS][dR][dF][dI][dN][dC]-OH; disulfide 5-13), the “% inhibition H1N1” value in assay [1] is 65.4%. For the same molecule, the “% inhibition H3N8” value in assay [2] came to 76.5%. In addition, in assay [3], the “% inhibition H9N2” value is recorded as 40%.

In the case of `CC[C@@H](C)[C@H]1NC(=O)[C@@H](Cc2ccccc2)NC(=O)[C@@H](CCCNC(=N)N)NC(=O)[C@@H](CO)NC(=O)[C@H]2CCCN2C(=O)[C@@H]([C@H](C)O)NC(=O)[C@H](NC(=O)[C@@H](CCCCN)NC(=O)[C@@H](CCCCN)NC(=O)[C@@H](CCCNC(=N)N)NC(=O)[C@H](N)CCCNC(=N)N)CSSC[C@H](C(=O)O)NC(=O)[C@@H](CC(N)=O)NC1=O` [PSP II A13, H-rrkkctpsrfinc-OH] (H-[dR][dR][dK][dK][dC][dT][dP][dS][dR][dF][dI][dN][dC]-OH; disulfide 5-13), in assay [1], the “% inhibition H1N1” value turned out to be 86.5%. Besides, the “% inhibition H3N8” value in assay [2] worked out at 97%. Also, the “% inhibition H9N2” value in assay [3] was 70%.

For the molecule `CC[C@@H](C)[C@H]1NC(=O)[C@@H](Cc2ccccc2)NC(=O)[C@@H](CCCNC(=N)N)NC(=O)[C@@H](CO)NC(=O)[C@@H](CCC(N)=O)NC(=O)[C@@H]([C@H](C)O)NC(=O)[C@H](NC(=O)[C@@H](CCCCN)NC(=O)[C@@H](CCCCN)NC(=O)[C@@H](CCCNC(=N)N)NC(=O)[C@H](N)CCCNC(=N)N)CSSC[C@H](C(=O)O)NC(=O)[C@@H](CC(N)=O)NC1=O` [PSP II A14, H-rrkkctqsrfinc-OH] (H-[dR][dR][dK][dK][dC][dT][dQ][dS][dR][dF][dI][dN][dC]-OH; disulfide 5-13), in assay [1], the “% inhibition H1N1” value stood at 73%. Moreover, the “% inhibition H3N8” value in assay [2] turned out to be 85%. Further, the “% inhibition H9N2” value in assay [3] is given as 80%.

In the case of `CC[C@@H](C)[C@H]1NC(=O)[C@@H](Cc2ccccc2)NC(=O)[C@@H](CCCNC(=N)N)NC(=O)[C@@H](CO)NC(=O)[C@@H](CCCNC(=N)N)NC(=O)[C@@H]([C@H](C)O)NC(=O)[C@H](NC(=O)[C@@H](CCCCN)NC(=O)[C@@H](CCCCN)NC(=O)[C@@H](CCCNC(=N)N)NC(=O)[C@H](N)CCCNC(=N)N)CSSC[C@H](C(=O)O)NC(=O)[C@@H](CC(N)=O)NC1=O` [PSP II A15, H-rrkkctrsrfinc-OH] (H-[dR][dR][dK][dK][dC][dT][dR][dS][dR][dF][dI][dN][dC]-OH; disulfide 5-13), the “% inhibition H1N1” value in assay [1] is reported as 57.7%. Moreover, in assay [2], the “% inhibition H3N8” value stood at 79.4%. In addition, the “% inhibition H9N2” value in assay [3] came to 90%.

Regarding `CC[C@@H](C)[C@H]1NC(=O)[C@@H](Cc2ccccc2)NC(=O)[C@@H](CCCNC(=N)N)NC(=O)[C@@H](CO)NC(=O)[C@@H](CO)NC(=O)[C@@H]([C@H](C)O)NC(=O)[C@H](NC(=O)[C@@H](CCCCN)NC(=O)[C@@H](CCCCN)NC(=O)[C@@H](CCCNC(=N)N)NC(=O)[C@H](N)CCCNC(=N)N)CSSC[C@H](C(=O)O)NC(=O)[C@@H](CC(N)=O)NC1=O` [PSP II A16, H-rrkkctssrfinc-OH] (H-[dR][dR][dK][dK][dC][dT][dS][dS][dR][dF][dI][dN][dC]-OH; disulfide 5-13), the “% inhibition H1N1” value in assay [1] is 61.5%. Also, in assay [2], the “% inhibition H3N8” value came out at 61.8%. The “% inhibition H9N2” value in assay [3] stood at 90%.

With `CC[C@@H](C)[C@H]1NC(=O)[C@@H](Cc2ccccc2)NC(=O)[C@@H](CCCNC(=N)N)NC(=O)[C@@H](CO)NC(=O)[C@@H]([C@H](C)O)NC(=O)[C@@H]([C@H](C)O)NC(=O)[C@H](NC(=O)[C@@H](CCCCN)NC(=O)[C@@H](CCCCN)NC(=O)[C@@H](CCCNC(=N)N)NC(=O)[C@H](N)CCCNC(=N)N)CSSC[C@H](C(=O)O)NC(=O)[C@@H](CC(N)=O)NC1=O` [PSP II A17, H-rrkkcttsrfinc-OH] (H-[dR][dR][dK][dK][dC][dT][dT][dS][dR][dF][dI][dN][dC]-OH; disulfide 5-13), the “% inhibition H1N1” value in assay [1] was determined as 67.3%. Also, the “% inhibition H3N8” value in assay [2] turned out to be 70.6%. For the same molecule, the “% inhibition H9N2” value in assay [3] was 80%.

Regarding `CC[C@@H](C)[C@H]1NC(=O)[C@@H](Cc2ccccc2)NC(=O)[C@@H](CCCNC(=N)N)NC(=O)[C@@H](CO)NC(=O)[C@@H](C(C)C)NC(=O)[C@@H]([C@H](C)O)NC(=O)[C@H](NC(=O)[C@@H](CCCCN)NC(=O)[C@@H](CCCCN)NC(=O)[C@@H](CCCNC(=N)N)NC(=O)[C@H](N)CCCNC(=N)N)CSSC[C@H](C(=O)O)NC(=O)[C@@H](CC(N)=O)NC1=O` [PSP II A18, H-rrkkctvsrfinc-OH] (H-[dR][dR][dK][dK][dC][dT][dV][dS][dR][dF][dI][dN][dC]-OH; disulfide 5-13), the “% inhibition H1N1” value in assay [1] is reported as 42.3%. The “% inhibition H3N8” value in assay [2] is recorded as 47%. Further, the “% inhibition H9N2” value in assay [3] worked out at 70%.

Consider `CC[C@@H](C)[C@H]1NC(=O)[C@@H](Cc2ccccc2)NC(=O)[C@@H](CCCNC(=N)N)NC(=O)[C@@H](CO)NC(=O)[C@@H](Cc2c[nH]c3ccccc23)NC(=O)[C@@H]([C@H](C)O)NC(=O)[C@H](NC(=O)[C@@H](CCCCN)NC(=O)[C@@H](CCCCN)NC(=O)[C@@H](CCCNC(=N)N)NC(=O)[C@H](N)CCCNC(=N)N)CSSC[C@H](C(=O)O)NC(=O)[C@@H](CC(N)=O)NC1=O` [PSP II A19, H-rrkkctwsrfinc-OH] (H-[dR][dR][dK][dK][dC][dT][dW][dS][dR][dF][dI][dN][dC]-OH; disulfide 5-13), for which, in assay [1], the “% inhibition H1N1” value stood at 88.4%. Moreover, in assay [2], the “% inhibition H3N8” value was determined as 82.4%. Moreover, in assay [3], the “% inhibition H9N2” value worked out at 100%.

As to `CC[C@@H](C)[C@H]1NC(=O)[C@@H](Cc2ccccc2)NC(=O)[C@@H]([C@H](C)O)NC(=O)[C@@H](Cc2ccccc2)NC(=O)[C@@H](Cc2c[nH]c3ccccc23)NC(=O)[C@@H](C)NC(=O)[C@H](NC(=O)[C@H](CCCCN)NC(=O)[C@H](CCCCN)NC(=O)[C@H](CCCNC(=N)N)NC(=O)[C@@H](N)CCCNC(=N)N)CSSC[C@H](C(=O)O)NC(=O)[C@@H](CC(N)=O)NC1=O` [PSP V A1, H-RRKKcawftfinc-OH] (H-RRKK[dC][dA][dW][dF][dT][dF][dI][dN][dC]-OH; disulfide 5-13), the “% Inhibition” value in assay [4] is recorded as less than 20%.

As for `CC[C@@H](C)[C@H]1NC(=O)[C@@H](Cc2ccccc2)NC(=O)[C@@H]([C@H](C)O)NC(=O)[C@@H](Cc2ccccc2)NC(=O)[C@@H](Cc2c[nH]c3ccccc23)NC(=O)[C@@H](CS)NC(=O)[C@H](NC(=O)[C@H](CCCCN)NC(=O)[C@H](CCCCN)NC(=O)[C@H](CCCNC(=N)N)NC(=O)[C@@H](N)CCCNC(=N)N)CSSC[C@H](C(=O)O)NC(=O)[C@@H](CC(N)=O)NC1=O` [PSP V A2, H-RRKKccwftfinc-OH] (H-RRKK[dC][dC][dW][dF][dT][dF][dI][dN][dC]-OH; disulfide 5-13), in assay [4], the “% Inhibition” value is listed as less than 20%.

Turning to `CC[C@@H](C)[C@H]1NC(=O)[C@@H](Cc2ccccc2)NC(=O)[C@@H]([C@H](C)O)NC(=O)[C@@H](Cc2ccccc2)NC(=O)[C@@H](Cc2c[nH]c3ccccc23)NC(=O)[C@@H](CC(=O)O)NC(=O)[C@H](NC(=O)[C@H](CCCCN)NC(=O)[C@H](CCCCN)NC(=O)[C@H](CCCNC(=N)N)NC(=O)[C@@H](N)CCCNC(=N)N)CSSC[C@H](C(=O)O)NC(=O)[C@@H](CC(N)=O)NC1=O` [PSP V A3, H-RRKKcdwftfinc-OH] (H-RRKK[dC][dD][dW][dF][dT][dF][dI][dN][dC]-OH; disulfide 5-13), the “% Inhibition” value in assay [4] is recorded as less than 20%.

For the molecule `CC[C@@H](C)[C@H]1NC(=O)[C@@H](Cc2ccccc2)NC(=O)[C@@H]([C@H](C)O)NC(=O)[C@@H](Cc2ccccc2)NC(=O)[C@@H](Cc2c[nH]c3ccccc23)NC(=O)[C@@H](CCC(=O)O)NC(=O)[C@H](NC(=O)[C@H](CCCCN)NC(=O)[C@H](CCCCN)NC(=O)[C@H](CCCNC(=N)N)NC(=O)[C@@H](N)CCCNC(=N)N)CSSC[C@H](C(=O)O)NC(=O)[C@@H](CC(N)=O)NC1=O` [PSP V A4, H-RRKKcewftfinc-OH] (H-RRKK[dC][dE][dW][dF][dT][dF][dI][dN][dC]-OH; disulfide 5-13), in assay [4], the “% Inhibition” value is reported as 27%.

Consider `CC[C@@H](C)[C@H]1NC(=O)[C@@H](Cc2ccccc2)NC(=O)[C@@H]([C@H](C)O)NC(=O)[C@@H](Cc2ccccc2)NC(=O)[C@@H](Cc2c[nH]c3ccccc23)NC(=O)[C@@H](Cc2ccccc2)NC(=O)[C@H](NC(=O)[C@H](CCCCN)NC(=O)[C@H](CCCCN)NC(=O)[C@H](CCCNC(=N)N)NC(=O)[C@@H](N)CCCNC(=N)N)CSSC[C@H](C(=O)O)NC(=O)[C@@H](CC(N)=O)NC1=O` [PSP V A5, H-RRKKcfWftfinc-OH] (H-RRKK[dC][dF][dW][dF][dT][dF][dI][dN][dC]-OH; disulfide 5-13), for which, in assay [4], the “% Inhibition” value was 57%.

`CC[C@@H](C)[C@H]1NC(=O)[C@@H](Cc2ccccc2)NC(=O)[C@@H]([C@H](C)O)NC(=O)[C@@H](Cc2ccccc2)NC(=O)[C@@H](Cc2c[nH]c3ccccc23)NC(=O)CNC(=O)[C@H](NC(=O)[C@H](CCCCN)NC(=O)[C@H](CCCCN)NC(=O)[C@H](CCCNC(=N)N)NC(=O)[C@@H](N)CCCNC(=N)N)CSSC[C@H](C(=O)O)NC(=O)[C@@H](CC(N)=O)NC1=O` [PSP V A6, H-RRKKcGwftfinc-OH] (H-RRKK[dC]G[dW][dF][dT][dF][dI][dN][dC]-OH; disulfide 5-13): the “% Inhibition” value in assay [4] is listed as less than 20%.

`CC[C@@H](C)[C@H]1NC(=O)[C@@H](Cc2ccccc2)NC(=O)[C@@H]([C@H](C)O)NC(=O)[C@@H](Cc2ccccc2)NC(=O)[C@@H](Cc2c[nH]c3ccccc23)NC(=O)[C@@H](Cc2c[nH]cn2)NC(=O)[C@H](NC(=O)[C@H](CCCCN)NC(=O)[C@H](CCCCN)NC(=O)[C@H](CCCNC(=N)N)NC(=O)[C@@H](N)CCCNC(=N)N)CSSC[C@H](C(=O)O)NC(=O)[C@@H](CC(N)=O)NC1=O` [PSP V A7, H-RRKKchwitfinc-OH] (H-RRKK[dC][dH][dW][dF][dT][dF][dI][dN][dC]-OH; disulfide 5-13): the “% Inhibition” value in assay [4] is given as 67%.
